# Measured values taken from patent publication US20100305157A1 (priority 2007, published 2010).
# Read-outs that look alike come from different tables or passages of the source.
# How the values were obtained:
# [1] = tested on: human neuroblastoma cell line SH-SYSY; experiment: Neuroprotection against hydrogen peroxide-induced cell death (LDH release); type: cell-based; conditions: for inhibition at 1 µM: compound 1 micromolar (concentration of maximum protection); for inhibition at 10 µM: read-out: Protection (%); for inhibition at 30 µM: compound 30 micromolar (concentration of maximum protection); for inhibition at 3 µM: compound 3 micromolar (concentration of maximum protection)
# [2] = target: T1, purified AChE from Electrophorus electricus (Electrophorus electricus, UniProt O42275); experiment: Inhibition of acetylcholinesterase (method of Rappaport); type: biochemical
# T1 construct: using purified AChE from Electrophorus electricus; from tissue
# Protocol: For this reason, it was considered interesting to evaluate the capacity to inhibit AChE of the compounds of the present invention. This evaluation was performed following the method of Rappaport (Clin. Chim. Acta 1959, 4, 227), using purified AChE from Electrophorus electricus and acetylcholine chloride (29.5 milimolar) as substrate. The reaction took place in a final volumen of 2.5 milliliters of an aqueous solution containing 0.78 units of AChE and m-nitrophenol at 1.9 milimolar to produce a yellow color, which is lost in function of the enzyme activity.
# Curves of inhibition were made incubating with the compounds of the present invention for 30 minutes and a sample without any compound was prepared to determine the 100% of the enzymatic activity. After 30 minutes of incubation, the loss of yellow color was evaluated by measuring absorbance at 405 nanometers in a spectrophotometric microplate reader (iEMS Reader MF, Labsystems). The concentration of compound producing 50% inhibition of AChE activity (IC50) was calculated transforming the values of absorbance to enzymatic activity Rappaport units extrapolating from a calibration curve previously obtained.
# The results of inhibition of AChE, expressed as the concentration which inhibits 50% of activity (IC50) for the compounds of the present invention, are the following: […]
# [3] = target: T2, peripheral site of AChE from bovine erythrocytes (Bos taurus, UniProt P23795); experiment: biochemical; type: binding; conditions: for inhibition at 0.3 µM: compound 0.3 micromolar (concentration of maximum reduction)
# T2 construct: A solution of AChE from bovine erythrocytes; from tissue; host or cells: bovine erythrocytes
# T2 sequence (P23795 31-614 isoform P23795-2 limits assumed): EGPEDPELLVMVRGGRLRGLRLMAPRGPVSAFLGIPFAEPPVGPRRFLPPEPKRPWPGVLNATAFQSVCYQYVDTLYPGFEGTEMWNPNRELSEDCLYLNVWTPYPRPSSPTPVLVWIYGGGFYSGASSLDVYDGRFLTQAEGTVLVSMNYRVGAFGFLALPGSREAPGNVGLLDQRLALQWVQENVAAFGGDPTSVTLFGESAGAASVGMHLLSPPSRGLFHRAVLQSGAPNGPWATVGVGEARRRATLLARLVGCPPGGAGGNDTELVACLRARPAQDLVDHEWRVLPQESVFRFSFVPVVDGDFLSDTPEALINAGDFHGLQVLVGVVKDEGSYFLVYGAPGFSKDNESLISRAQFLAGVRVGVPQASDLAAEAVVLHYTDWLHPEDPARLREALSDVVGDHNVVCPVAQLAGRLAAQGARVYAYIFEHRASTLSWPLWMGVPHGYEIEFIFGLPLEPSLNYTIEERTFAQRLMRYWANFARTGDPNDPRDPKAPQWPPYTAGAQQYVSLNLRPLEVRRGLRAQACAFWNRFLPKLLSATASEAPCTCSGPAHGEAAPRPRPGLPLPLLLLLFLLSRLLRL
# Protocol: A competition test for the peripheral site of acetylcholinesterase was carried out with the compounds at concentrations of 0.3, 1 and 3 micromolar.
# A solution of AChE from bovine erythrocytes at the concentration of 5 micromolar in Tris buffer 0.1 milimolar and pH 8 was used.
# [4] = PAMPA
# Protocol: (§1) The experiments were performed using two 96-well microplate in a sandwich assembly. The top microplate (Millipore, Ref MAIPS4510) is provided with 96 hydrophobic PVDF filters, where a solution of a lipid extract of pig brain (Avanti Polar Lipids) in dodecane is put down.
# (§2) The bottom microplate has 96 tear-shaped wells (Millipore, Ref. MAMCS9610). The acceptor 96-well microplate was filled with 180 μL per well of a mixture of phosphate buffer saline pH 7.4 (PBS) and EtOH in proportion 90:10. The filter surface of the donor microplate was impregnated with 4 μL of a solution of lipid extract from pig brain in dodecane (20 mg mL^−1). Compounds were dissolved in PBS/EtOH (90:10) and then 180 μL were added to the donor microplate, which is carefully placed on the receiver plate. After 120 minutes of incubation at 25° C., plate donor is carefully separated and determined the concentration of the compounds in the acceptor plate by UV spectroscopy. This method measures the permeability, expressed as the rate of passage of a given barrier in 10^−6 centimeter per second (10^−6 cm s^−1). The results are expressed as the mean plus/minus the standard deviation of three independent assays, each containing four replicates of each tested compound.
# [5] = in vitro; conditions: pig, PAMPA, pH 7.4
# Protocol: as §1, §2
# [6] = tested on: human neuroblastoma cell line SH-SYSY; experiment: Neuroprotection against rotenone plus oligomycin A-induced cell death (LDH release); conditions: rotenone (30 micromolar) plus oligomycin A (10 micromolar)
# Protocol: With this goal in mind, the cytoprotective effect of the compounds was evaluated in human neuroblastoma cells, specifically the neuroprotective potential of these compounds against oxidative stress produced in two different models: with hydrogen peroxide as exogenous generator of free radicals, and with rotenone and oligomycin A, blockers of the mitochondrial respiratory chain, as described in J. Neurochem.
# In the assays, SH-SYSY were sub-cultured in 48-well plates with a density of seed of 5×10^5 cells per well, or in 96-well plates with a density of 2×10^5 cells per well. In the cytotoxicity experiments, cells prepared in this way were treated with the compounds to test, in DMEM free of serum.
# To study the cytoprotective action of different compounds against cell death induced by hydrogen peroxide 30 micromolar or by a combination of rotenone 30 micromolar with oligomycin A 10 micromolar, compounds were added to the medium and maintained there for 24 hours. Then, media were replaced by fresh media still containing the compound plus the cytotoxic agent, and were maintained there for an additional period of 24 hours. Cell viability was checked by measuring the activity of the enzyme LDH, as it was explained before, using the kit “Cytotoxicity Cell Death” (Roche-Boehringer Mannheim) following the instructions of the manufacturer. Total LDH activity was defined as the sum of intra plus extra LDH activities. Released LDH was defined as the percentage of extracellular compared with total LDH activity.
# In all the pharmacological experiments a positive control was used as comparison and to evaluate the reliability of the method used.
# [7] = oxygen peroxide (60 micromolar) stimulus, SH-SYSY, LDH
# [8] = read-out: Protection (%) (percentage of the reduction in propidium fluorescence)
# [9] = compound 3 micromolar (concentration of maximum protection)
# [10] = 30 minutes incubation, acetylcholine chloride 29.5 milimolar as substrate, read-out: AChE-I, IC50
# [11] = compound 3 micromolar (concentration of maximum reduction), propidium 20 micromolar, AChE 5 micromolar, read-out: Protection (%) (percentage of the reduction in propidium fluorescence)
# [12] = compound 0.3 micromolar (concentration of maximum protection)
# [13] = propidium 20 micromolar, AChE 5 micromolar, read-out: Protection (%) (percentage of the reduction in propidium fluorescence)
# [14] = oxygen peroxide (60 micromolar) stimulus, compound 10 micromolar (concentration of maximum protection), SH-SYSY, LDH
# T1 sequence (O42275 24-633): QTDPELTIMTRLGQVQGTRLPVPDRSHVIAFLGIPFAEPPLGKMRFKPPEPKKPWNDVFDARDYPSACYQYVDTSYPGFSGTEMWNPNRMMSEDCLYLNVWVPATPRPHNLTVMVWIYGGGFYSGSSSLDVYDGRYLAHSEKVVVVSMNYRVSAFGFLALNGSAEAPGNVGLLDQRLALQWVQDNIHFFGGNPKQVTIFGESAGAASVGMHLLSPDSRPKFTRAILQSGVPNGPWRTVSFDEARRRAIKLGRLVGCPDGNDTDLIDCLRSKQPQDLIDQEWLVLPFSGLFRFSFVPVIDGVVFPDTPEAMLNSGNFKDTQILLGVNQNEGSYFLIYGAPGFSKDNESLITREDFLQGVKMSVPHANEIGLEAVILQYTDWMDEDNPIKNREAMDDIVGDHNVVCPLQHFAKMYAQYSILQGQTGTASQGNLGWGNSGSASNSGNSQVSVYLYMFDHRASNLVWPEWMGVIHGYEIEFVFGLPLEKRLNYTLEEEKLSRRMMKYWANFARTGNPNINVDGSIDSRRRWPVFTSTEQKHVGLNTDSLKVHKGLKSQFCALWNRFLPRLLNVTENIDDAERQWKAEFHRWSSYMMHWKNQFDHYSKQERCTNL
structure (smiles),measurement,setting,value
"CCCCCCOC(=O)C(CCC(=O)NCCC1CCN(Cc2ccccc2)CC1)NC(=O)OC(C)(C)C (stereo not shown) [Example 1.2, n-hexyl 4-[2-(1-benzylpiperidin-4-yl)-ethylcarbamoyl]-2-tert-butoxycarbonylamino-butyrate]",inhibition at 1 µM,[1]; [7],24.9%
same,IC50,[2],5000 nM
same,inhibition at 1 µM,[3]; [8],43.6%
same,Classification (CNS penetration),[4],CNS+
same,Papp at 120 min,[5],4.4 ± 0.1 ×10⁻⁶ cm/s
"CCCCCCOC(=O)C(CCC(=O)NCCC1CCN(Cc2ccccc2)CC1)NC(=O)OCc1ccccc1 (stereo not shown) [Example 1.1, n-hexyl 2-benzyloxycarbonylamino-4-[2-(1-benzylpiperidin-4-yl)-ethylcarbamoyl]-butyrate]",inhibition at 10 µM,[1],39.1%
same,IC50,[2],1400 nM
same,inhibition at 3 µM,[3]; [8],29.3%
"Cc1c(C)c2c(c(C)c1O)CCC(C)(C(=O)O)O2 (stereo not shown) [Trolox, trolox, reference compound]",inhibition at 30 µM,[1]; [7],57.7%
same,Protection (%),[6]; [9],52.9%
"CCCCCCOC(=O)C(CCC(=O)NCCC1CCN(Cc2ccccc2)CC1)NC(=O)c1ccccc1 (stereo not shown) [Example 1.3, n-hexyl 2-benzoylamino-4-[2-(1-benzylpiperidin-4-yl)-ethylcarbamoyl]-butyrate]",inhibition at 3 µM,[1]; [7],68.1%
same,IC50,[2]; [10],1900 nM
same,inhibition at 3 µM,[3]; [11],37.3%
same,Protection (%),[6]; [12],47.9%
"CCCCCCOC(=O)C(CCC(=O)NCCC1CCN(Cc2ccccc2)CC1)NC(=O)c1cc(Br)cs1 (stereo not shown) [Example 1.9, n-hexyl 4-[2-(1-benzyl-piperidin-4-yl)-ethylcarbamoyl]-2-[(4-bromo-thiophen-2-carbonyl)-amino]-butyrate]",inhibition at 3 µM,[1]; [7],84.3%
same,IC50,[2]; [10],1200 nM
same,inhibition at 0.3 µM,[3]; [13],11.3%
same,Protection (%),[6]; [9],35.9%
"CCCCCCOC(=O)C(CCC(=O)NCCC1CCN(Cc2ccccc2)CC1)NC(=O)c1cc2ccccc2s1 (stereo not shown) [Example 1.4, n-hexyl 2-[(benzo[b]tiofen-2-carbonyl)-amino]-4-[2-(1-benzyl-piperidin-4-yl)-ethylcarbamoyl]-butyrate]",inhibition at 1 µM,[1]; [7],28.7%
same,IC50,"[2]; read-out: AChE-I, IC50",2500 nM
same,inhibition at 3 µM,[3]; [11],39.7%
"CCCCCCOC(=O)C(CCC(=O)NCCC1CCN(Cc2ccccc2)CC1)NC(=O)c1cc2cccnc2s1 (stereo not shown) [Example 1.6, n-hexyl 4-[2-(1-benzyl-piperidin-4-yl)-ethylcarbamoyl]-2-[(thieno[2,3-b]piridin-2-carbonyl)-amino]-butyrate]",inhibition at 30 µM,[1]; [7],48.8%
same,IC50,[2]; [10],3250 nM
same,inhibition at 0.3 µM,[3]; [13],37.4%
same,Classification (CNS penetration),[4],CNS+
same,Papp at 120 min,[5],3.2 ± 0.01 ×10⁻⁶ cm/s
"CCCCCCOC(=O)C(CCC(=O)NCCC1CCN(Cc2ccccc2)CC1)NC(=O)c1cccs1 (stereo not shown) [Example 1.8, n-hexyl 4-[2-(1-benzyl-piperidin-4-yl)-ethylcarbamoyl]-2-[(thiophen-2-carbonyl)-amino]-butyrate]",inhibition at 10 µM,[1]; [14],73%
same,IC50,[2]; [10],3500 nM
same,inhibition at 3 µM,[3]; [11],15%
same,Classification (CNS penetration),[4],CNS+
same,Papp at 120 min,[5],5.3 ± 0.01 ×10⁻⁶ cm/s
same,Protection (%),[6]; compound 0.1 micromolar (concentration of maximum protection),48.9%
"CCCCCCOC(=O)C(CCC(=O)NCCC1CCN(Cc2ccccc2)CC1)NC(=O)c1cc2ccsc2s1 (stereo not shown) [Example 1.7, n-hexyl 4-[2-(1-benzyl-piperidin-4-yl)-ethylcarbamoyl]-2-[(thieno[2,3-b]thiophen-2-carbonyl)-amino]-butyrate]",inhibition at 10 µM,[1]; [14],46.4%
same,IC50,[2]; [10],3500 nM
same,inhibition at 0.3 µM,[3]; [13],42.2%
same,Protection (%),[6]; [12],46.1%
"C=CC[N+](C)(C)c1ccc(CCC(=O)CCc2ccc([N+](C)(C)CC=C)cc2)cc1.[Br-].[Br-] [BW284c51, reference compound]",Protection (%) (percentage of the reduction in propidium fluorescence),"[3]; positive control at 1000 micromolar (1 milimolar), propidium 20 micromolar, AChE 5 micromolar",24.5%
"CCCCCCOC(=O)C(CCC(=O)NCCC1CCN(Cc2ccccc2)CC1)NC(=O)Cc1cc2ccc(Cl)cc2s1 (stereo not shown) [Example 1.5, n-hexyl 4-[2-(1-benzyl-piperidin-4-yl)-ethylcarbamoyl]-2-[2-(6-chloro-benzo[b]thiophen-2-yl)-acetylamino]-butyrate]",inhibition at 3 µM,[1]; [7],32.5%
same,IC50,[2]; [10],2300 nM
same,inhibition at 3 µM,[3]; [11],23.4%
